Laboratory results published in PubChem BioAssay (NCI).
Where “and” joins values, the source holds several entries; their conditions need not be identical. Equal entries are not always repeated.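 Five compound concentrations were applied to cells in 96-well plates for 48 hours; endpoints were derived by simple linear interpolation of the resulting dose-response curve. Abbreviation: GI50, concentration required for 50% inhibition of growth. TGI: concentration producing complete growth inhibition.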

What was measured:
Assay in all cases: NCI-60 cell line screen, 48 h
U251 CNS = tested on: U251 CNS
ACHN renal = tested on: ACHN renal
RPMI-8226 leukemia = tested on: RPMI-8226 leukemia
EKVX NSCLC = tested on: EKVX NSCLC
OVCAR-3 ovarian = tested on: OVCAR-3 ovarian
OVCAR-5 ovarian = tested on: OVCAR-5 ovarian
MALME-3M melanoma = tested on: MALME-3M melanoma
COLO 205 colon = tested on: COLO 205 colon
SK-MEL-5 melanoma = tested on: SK-MEL-5 melanoma
RXF 393 renal = tested on: RXF 393 renal

SMILES | GI50 (U251 CNS) | TGI (U251 CNS) | GI50 (ACHN renal) | TGI (ACHN renal) | GI50 (RPMI-8226 leukemia) | TGI (RPMI-8226 leukemia) | GI50 (EKVX NSCLC) [µM] | TGI (EKVX NSCLC) [µM] | GI50 (OVCAR-3 ovarian) | TGI (OVCAR-3 ovarian) | GI50 (OVCAR-5 ovarian) | TGI (OVCAR-5 ovarian) | GI50 (MALME-3M melanoma) | TGI (MALME-3M melanoma) | GI50 (COLO 205 colon) | TGI (COLO 205 colon) | GI50 (SK-MEL-5 melanoma) | TGI (SK-MEL-5 melanoma) | GI50 (RXF 393 renal) | TGI (RXF 393 renal)
O=C(/C=C/c1cc([N+](=O)[O-])ccc1Cl)c1ccccc1 | 2.56 µM | 8.04 µM | 16.4 µM | 31.9 µM | 3.68 µM | 14.6 µM | 13 | 43.2 | 5.08 µM | 16.1 µM | 23.5 µM | 74.2 µM | 19.4 µM | 44.7 µM | 23 µM | 48.2 µM | 15.4 µM | 29.3 µM | 14.7 µM | 28.1 µM
O=C1c2ccccc2C(=O)c2c1ccc(C1C(=O)c3ccccc3C1=O)c2-c1c(C2C(=O)c3ccccc3C2=O)ccc2c1C(=O)c1ccccc1C2=O |  | > 100 µM |  | > 100 µM |  | > 100 µM |  | > 100 |  | > 100 µM |  | > 100 µM |  | > 100 µM |  | > 100 µM |  | > 100 µM |  | > 100 µM
NC(=O)c1ccc2nc(-c3ccc(Oc4ccc(Cl)cc4)cc3)[nH]c2c1 | 56.6 µM and 9.01 µM | 75 µM and 22.6 µM | 13.9 µM and 14.4 µM | 75 µM and 30.2 µM | > 75 µM and 10.9 µM | > 75 µM and 37.6 µM | > 75 | > 75 | 20.8 µM and 14.4 µM | 75 µM and 34.8 µM | > 75 µM and 18.6 µM | > 75 µM and 36.8 µM | 32.4 µM and 18.2 µM | 75 µM and 33.6 µM | 22.3 µM and 20.8 µM | 75 µM and 38.9 µM | 28.7 µM and 7.98 µM | 75 µM and 23.7 µM | 48.9 µM and 14.9 µM | 75 µM and 30.2 µM
O=C(Nc1nc2ncn(CCNCc3ccccc3)c2c(=O)[nH]1)c1ccccc1 |  | > 100 µM |  | > 100 µM |  | > 100 µM |  | > 100 |  | > 100 µM |  | > 100 µM |  | > 100 µM |  | > 100 µM |  | > 100 µM |  | > 100 µM
Cc1cccc2c(=O)c3c(sc12)c(NCCNCCO)nc1ccccc13 | 1.56 µM | 3.09 µM | 1.5 µM | 2.83 µM | 1.81 µM | 3.88 µM | 1.5 | 2.92 | 1.55 µM | 2.99 µM | 1.61 µM | 3.06 µM | 1.65 µM | 3.18 µM | 1.56 µM | 3.35 µM | 1.65 µM | 3.08 µM | 1.43 µM | 2.77 µM
Nc1nc(-c2ccccc2)nc(N)c1N=O | 5.13 µM | 17.9 µM | 4 µM | 14.1 µM | 17.9 µM | 78.7 µM | 20.1 | > 100 | 4.17 µM | 14 µM | 13.7 µM | 26.8 µM | 6.71 µM | 22.9 µM | 2.59 µM | 8.45 µM | 8.21 µM | 20.8 µM | 2.07 µM | 7.07 µM
CC(=O)OCC1OC(SC2OC(COC(C)=O)C(OC(C)=O)C(OC(C)=O)C2OC(C)=O)C(OC(C)=O)C(OC(C)=O)C1OC(C)=O (stereo not given) |  | > 100 µM |  | > 100 µM |  | > 100 µM |  | > 100 |  | > 100 µM |  | > 100 µM |  | > 100 µM |  | > 100 µM |  | > 100 µM |  | > 100 µM
NC(=O)c1cc(-c2ccc(F)cc2)cc(-c2ccncc2)c1N | > 25 µM | > 25 µM | > 25 µM | > 25 µM | > 25 µM | > 25 µM | > 25 | > 25 | > 25 µM | > 25 µM | > 25 µM | > 25 µM | > 25 µM | > 25 µM | > 25 µM | > 25 µM | > 20.2 µM | > 25 µM | > 18.6 µM | > 25 µM
O=C(CC1(O)C(=O)Nc2c(Cl)cc(Cl)cc21)c1cccc2ccccc12 (stereo not given) |  | 29.2 µM |  | 30.8 µM |  | 47.4 µM |  | 29.7 |  | 30 µM |  | 37.1 µM |  | 35.2 µM |  | 31.4 µM |  | 28.4 µM |  | 37.1 µM
COc1cc(O)c(C(=O)/C=C/c2ccc(O)cc2)c(O)c1[C@@H]1C[C@H](CCc2ccc(O)cc2)O[C@H](c2ccc(O)cc2)C1 | 3.31 µM | 11.5 µM | 3.31 µM | 10.9 µM | 2.18 µM | 5 µM | 4.35 | 15.8 | 4.18 µM | 21 µM | 7.53 µM | 19.9 µM | 5.46 µM | 28.7 µM | 2.72 µM | 8.44 µM | 3.7 µM | 12.8 µM | 3.1 µM | 9.07 µM
COC1OC(COCc2ccc(Cl)cc2)C(OCc2ccc(Cl)cc2)C1N=[N+]=[N-] (stereo not given) |  | > 100 µM |  | > 100 µM |  | > 100 µM |  | > 100 |  | > 100 µM |  | > 100 µM |  | > 100 µM |  | > 100 µM |  | > 100 µM |  | > 100 µM
CCn1cc(C(=O)O)c(=O)c2cc3c(cc21)S(=O)(=O)CC3 |  | > 100 µM |  | > 100 µM |  | > 100 µM |  | > 100 |  | > 100 µM |  | > 100 µM |  | > 100 µM |  | > 100 µM |  | > 100 µM |  | > 100 µM
O=[N+]([O-])c1cccc(-c2oc(C=Nc3ccccc3)c([N+](=O)[O-])c2-c2cccc([N+](=O)[O-])c2)c1 |  | > 100 µM |  | > 100 µM |  | > 100 µM |  | > 100 |  | > 100 µM |  | > 100 µM |  | > 100 µM |  | > 100 µM |  | > 100 µM |  | > 100 µM
O=C1C2C3C=CC(C2C(=O)N1COP(=O)(O)O)C1C2C(=O)N(COP(=O)(O)O)C(=O)C2C31 (stereo not given) |  | > 100 µM |  | > 100 µM |  | > 68.5 µM |  | > 100 |  | > 100 µM |  | > 100 µM |  | > 100 µM |  | > 65 µM |  | > 100 µM |  | > 100 µM
COC(=O)CCC(=O)CC(=O)C(=O)Nc1c(Cl)cc([N+](=O)[O-])cc1Cl |  | > 100 µM |  | > 100 µM |  | 88.1 µM |  | > 100 |  | > 100 µM |  | > 100 µM |  | > 100 µM |  | > 100 µM |  | > 100 µM |  | > 100 µM
